Measurements as given in patent US11065211B2, “Isoxylitones mediated neurogenesis” (priority 2018, dated 2021).

Key:
Type in all cases: cell-based, rat
hypoxic cortical cells = test: In-vitro model of hypoxic pre-conditioning; conditions: 2 h hypoxia then treatment at various concentrations, vs positive control hypoxic cells, FIG. 7
Cocul-CTX cells = test: BrdU proliferation ELISA assay; conditions: 150 μg/ml, 24 h, FIG. 6
Protocol: (§1) Wistar rats (150-200 gm) were used to isolate bone marrow (BM). Rats were sacrificed and their femurs were removed aseptically. The bone marrow (BM) was flushed from the shaft of the bone by clipping of the epiphysial ends and flushing using a 26-gauge needle with ˜2 ml of Dulbecco's Modified Eagle's medium (DMEM) supplemented with 5% FBS, 1% penicillin/streptomycin solution, 1% sodium pyruvate and L-glutamine. The BM was then centrifuged for 8 minutes at 1000 rpm. Following centrifugation, cell pellet was collected and 1 ml of fresh DMEM was added. The cell viability was checked using trypan blue exclusion method. The cells were then divided into three equal parts. One part was co-cultured with freshly isolated hippocampal cells in T75 cm^2 flask, 2nd with freshly isolated cortical cells and the third portion (BM cells only) was cultured as a control. The cell density for co-cultures was set at 140,000 cells/ml for each type of culture. The cultured flasks were then incubated at 37° C. and 5% CO2. After 4-5 days, floating hematopoietic cells and dead debris/tissues of hippocampus and cortex were removed and bone marrow stromal cells (BMSCs) were recovered due to their tendency to adhere. Medium was replaced after every 3 to 4 days till cells became 80-90% confluent. […]

Cocul-HP cells = test: BrdU proliferation ELISA assay; conditions: 24 h, increase reported with 100 and 150 μg/mL, FIG. 6
Protocol: as §1

Structure (SMILES): CC(=O)C=C1C=C(C)CC(C)(C)C1 (mixture of isomers) [isoxylitones]
- recovery of hypoxic cells (phase-contrast morphology) (hypoxic cortical cells): Recovery of hypoxic cells clearly observed
- BrdU positive cells (Cocul-CTX cells): increased BrdU positive cells
- BrdU positive cells (Cocul-HP cells): significantly elevated the BrdU positive cells
